From patent US20100029479A1, “PESTICIDAL COMBINATIONS” (SYNGENTA CROP PROTECTION, INC., priority 2006, published 2010)

Assays:
[1] = system: Ustilago; test: Ustilago, % pest incidence (seed treatment, field plots); type: in vivo; settings: Antraquinone 50, combination 50 + 2 + 5 + 3 gai/100 kg seed
[2] = system: Tilletia caries; test: Tilletia caries, number of ears infected (seed treatment, field plots); type: in vivo; settings: Winter wheat/caphorn, Antraquinone 50, combination 50 + 2 + 5 + 3 gai/100 kg seed

Question: What does the source list for `O=C1c2ccccc2C(=O)c2ccccc21` [Antraquinone]?
Answer: % Pest Incidence ([1]; Trial 1, Winter barley var LL09OH05, plot 15 m^2, 210 DAP): 18.1 (a) %; % Pest Incidence ([1]; Trial 2, Winter barley var LL05OH05, plot 14.4 m^2, 205 DAP): 5.6 (a) %; % Pest Incidence ([1]; Trial 3, Winter barley, plot 14.4 m^2, 161 DAP): 22.2 (a) %; Number of Ears Infected ([2]; Trial 1, plot 15 m^2, 253 DAP): 14.3 (a); Number of Ears Infected ([2]; Trial 2, plot 14.25 m^2, 220 DAP): 232.3 (a); Number of Ears Infected ([2]; Trial 3, plot 15 m^2, 212 DAP): 84.3 (a); Number of Ears Infected ([2]; Trial 4, plot 12 m^2, 192 DAP): 56 (a)
